Series [1] deals with T1, Human Serum Albumin (HSA) (Homo sapiens, UniProt P02768).
T1 construct: purchased Chromtech (Cheshire, UK)
The series is described as follows: Human serum albumin (HSA) binding, immobilised HSA HPLC column. The class given is in vitro ADME. The note with it: for % HSA measured / logK measured: HSA column; for logK measured: derived from the calibration curve; for logtR: logarithm of typical retention time on the HSA column; for tR: typical retention time on the HSA column. On the procedure:
Instrument: Agilent HP1100 HPLC instruments were used throughout.
HPLC columns: Chromtech Immobilised HSA HPLC column 50×3 mm was purchased from Chromtech (Cheshire, UK).
Mobile phase and detection: The mobile phase A was 50 mM pH 7.4 ammonium acetate solution, while mobile phase B was 2-Propanol (HPLC grade, Runcorn, UK). The mobile phase flow rate was 1.8 ml/min. The column temperature was kept at 30° C. The gradient profile and run time were the same with each column, the linear gradient from 0 to 30% 2-propanol was applied from 0 to 3 minutes. From 3 to 5 minutes, the mobile phase composition was constant 30% 2-propanol and 70% 50-mM ammonium acetate. From 5 min to 5.2 min the mobile phase composition was change to 100% ammonium acetate buffer only and remained the same until the end of the run. Each separation was stopped after 6 minutes. The column temperature was kept at 30° C.
Detection: Chromatograms were recorded at 230 and 254 nm by a diode array UV absorption detector at room temperature.

The conditions of series [2]: linear conversion of literature % PPB; cited from earlier work.
The subject of another series is neutrophilia. The experiment in a line: Inhibition of LPS-induced lung neutrophilia in rats, intratracheal dosing. Format: in vivo. The note with it: rat, retested at 30 ug/kg, similar method. On the procedure: Rats are lightly anaesthetized (isofluorane in oxygen) and vehicle or test substance administered intratracheally using a cannula placed trans-orally (200 μl). Following intratracheal administration, rats are returned to their cages and allowed free access to both food and water. Thirty min later, rats are placed in a perspex box and exposed to aerosolized lipopolysaccharide (LPS) (0.15 mg/ml, serotype 0127:B8) for 15 min (Devilbiss nebuliser) at a flow rate of 15 ml/min. Animals are killed 4 h later with pentobarbital (250 mg/kg i.p.). The lungs are lavaged using 3 aliquots (5 ml) of phosphate-buffered saline (Sigma catalogue no. P3813, pH 7.4) containing heparin (10 units/ml); recovered cells are pooled (pooled volume of recovered fluid will be recorded) and centrifuged (1300 rpm for 7 min). The supernatant is removed by aspiration and the cell pellet resuspended in 1 ml phosphate-buffered saline. Total cells are counted (Sysmex Microcell Counter F-500, TOA Medical Electronics Ltd., Japan). Smears are made by diluting recovered fluid (to approximately 10^6 cells/ml) and spinning an aliquot (100 μl) in a centrifuge (Cytospin, Shandon, UK). […] A total of 300 cells per smear are counted by light microscopy under oil immersion (×1000).

The target of series [3] is T2, human adenosine A3 receptor (Homo sapiens, UniProt P0DMS8).
T2 construct: expressed in transfected cells
T2 sequence (P0DMS8 1-318): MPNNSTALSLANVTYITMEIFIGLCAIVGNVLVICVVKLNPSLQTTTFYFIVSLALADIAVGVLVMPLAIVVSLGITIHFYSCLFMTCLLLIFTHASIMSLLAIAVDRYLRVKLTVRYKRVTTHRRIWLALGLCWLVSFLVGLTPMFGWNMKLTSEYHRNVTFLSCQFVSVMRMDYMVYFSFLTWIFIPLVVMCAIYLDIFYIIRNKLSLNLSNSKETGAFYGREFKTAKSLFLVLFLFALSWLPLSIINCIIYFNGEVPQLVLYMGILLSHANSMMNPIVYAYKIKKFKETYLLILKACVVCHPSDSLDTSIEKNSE
The series is described as follows: Agonist activity at human adenosine A3 receptor, CHO cells with cAMP response element SPAP reporter. Format: cell-based. As to conditions: forskolin enhanced cAMP. The procedure: The adenosine A3 agonist potency of compounds are determined using Chinese Hamster ovary cells stably expressing the human adenosine A3 receptor and the cAMP response element SPAP (secreted placental alkaline phosphatase). Increasing the level of cAMP in theses cell causes an increase in the transcription of the SPAP reporter gene, which can be quantified by addition of a colour substrate to measure a coloured product. The adenosine A3 receptor is Gi linked so levels cAMP have to be enhanced by forskolin in these cells. Activation of the adenosine A3 receptor is determined by the reduction of forskolin enhanced cAMP, which is measured as a decrease in the coloured product. The Adenosine A3 activity of the test compounds is expressed as a ratio to that of the non-selective adenosine receptor agonist, N-ethyl carboxamide adenosine (NECA).

Here are results for 10 molecules from patent US7985740B2, “Purine derivatives as agonists of the adenosine A2A receptor” (Glaxo Group Limited, priority 2005, dated 2011).

T1 sequence (P02768 25-609): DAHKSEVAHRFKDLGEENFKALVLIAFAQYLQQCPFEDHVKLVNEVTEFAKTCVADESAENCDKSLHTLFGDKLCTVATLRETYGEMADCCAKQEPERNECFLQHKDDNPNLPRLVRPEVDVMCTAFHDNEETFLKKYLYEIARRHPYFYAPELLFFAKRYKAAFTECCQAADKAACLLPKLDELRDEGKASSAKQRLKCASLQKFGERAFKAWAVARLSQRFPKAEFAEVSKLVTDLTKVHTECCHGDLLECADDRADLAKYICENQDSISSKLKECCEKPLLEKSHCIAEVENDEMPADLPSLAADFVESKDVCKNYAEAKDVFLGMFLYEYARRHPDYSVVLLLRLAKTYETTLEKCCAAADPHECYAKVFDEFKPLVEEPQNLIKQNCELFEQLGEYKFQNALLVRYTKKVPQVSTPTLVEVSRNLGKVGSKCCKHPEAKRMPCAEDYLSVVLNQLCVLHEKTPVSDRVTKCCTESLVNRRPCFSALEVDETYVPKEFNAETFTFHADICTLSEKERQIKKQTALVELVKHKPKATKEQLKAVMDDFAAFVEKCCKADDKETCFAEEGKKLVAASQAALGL

`O=C1CN=C(c2ccccn2)c2cc(Br)ccc2N1` [Bromazepam]: the “% HSA measured” value in series [1] (pH 7.4) is on record as 74.7%. In series [1], this molecule returned a logK measured of 0.45, a logtR of 0.06 and a tR of 1.16. Also, the “lit logK” value in series [2] is reported as 0.17.
Take `CCCC1O[C@@H]2C[C@H]3[C@@H]4CCC5=CC(=O)C=C[C@]5(C)[C@H]4[C@@H](O)C[C@]3(C)[C@]2(C(=O)CO)O1` (stereo partly drawn) [Budesonide]: the “% HSA measured” value in series [1] (pH 7.4) is 85.6%. Moreover, in series [1], the logK measured is listed as 0.75, the logtR turned out to be 0.20 and the tR was found to be 1.6. For the same molecule, the “lit logK” value in series [2] is on record as 0.83.
Regarding `NC(=O)N1c2ccccc2C=Cc2ccccc21` [Carbamazepine], the “% HSA measured” value in series [1] (pH 7.4) came to 80.5%. In series [1], this molecule yielded a logK measured of 0.59, a logtR of 0.13 and a tR of 1.35. Moreover, the “lit logK” value in series [2] is 0.46.
Regarding `O=C(O)Cc1ccccc1Nc1c(Cl)cccc1Cl` [Diclofenac], the “lit logK” value in series [2] is on record as 1.92.
Turning to `CCn1nnc([C@H]2O[C@@H](n3cnc4c(N[C@H]5CC[C@H](Nc6nc(NCCCCN7CCCC7)nc7[nH]cnc67)CC5)nc(NCCCCN5CCCC5)nc43)[C@H](O)[C@@H]2O)n1` [Example 4, (2R,3S,4R,5R)-2-(2-ethyl-2H-tetrazol-5-yl)-5-[2-{[4-(1-pyrrolidinyl)butyl]amino}-6-({trans-4-[(2-{[4-(1-pyrrolidinyl)butyl]amino}-1H-purin-6-yl)amino]cyclohexyl}amino)-9H-purin-9-yl]tetrahydro-3,4-furandiol, triformate], the inhibition of neutrophilia in the series on neutrophilia is listed as more than 50%.
On to `CCn1nnc(C2OC(n3cnc4c(NC5CCC(Nc6ccnc(NCCc7nc[nH]c7C)n6)CC5)nc(NCCc5nc[nH]c5C)nc43)C(O)C2O)n1.O=CO.O=CO` [Example 8, (2R,3S,4R,5R)-2-(2-ethyl-2H-tetrazol-5-yl)-5-[2-{[2-(5-methyl-1H-imidazol-4-yl)ethyl]amino}-6-({trans-4-[(2-{[2-(5-methyl-1H-imidazol-4-yl)ethyl]amino}-4-pyrimidinyl)amino]cyclohexyl}-amino)-9H-purin-9-yl]tetrahydro-3,4-furandiol, diformate], for which, in series [1] (pH 7.4), the HSA binding result is reported as “greater than 90%”. Also, the “Adenosine A3 agonist activity” value in series [3] was “functionally inactive over the concentration range of the assay”.
Consider `CCn1nnc([C@H]2O[C@@H](n3cnc4c(N[C@H]5CC[C@H](Nc6ccnc(N[C@H]7CC[C@H](N)CC7)n6)CC5)nc(N[C@H]5CC[C@H](N)CC5)nc43)[C@@H](O)[C@H]2O)n1.O=CO.O=CO.O=CO` [Example 10, (2R,3S,4R,5R)-2-(2-[(trans-4-aminocyclohexyl)amino]-6-{[trans-4-({2-[(trans-4-aminocyclohexyl)amino]-4-pyrimidinyl}amino)cyclohexyl]-amino}-9H-purin-9-yl)-5-(2-ethyl-2H-tetrazol-5-yl)tetrahydro-3,4-furandiol, triformate], for which the “Adenosine A3 agonist activity” value in series [3] was “functionally inactive over the concentration range of the assay”.
`COC(=O)C1=C(C)NC(C)=C(C(=O)OCCN(C)Cc2ccccc2)C1c1cccc([N+](=O)[O-])c1` (stereo not drawn) [Nicardipine]: in series [1] (pH 7.4), the “% HSA measured” value was determined as 95.0%. Also, in series [1], the logK measured was 1.22, the logtR was found to be 0.43 and the tR turned out to be 2.7.
Turning to `CNC(=C[N+](=O)[O-])NCCSCc1csc(CN(C)C)n1` [Nizatidine], the “% HSA measured” value in series [1] (pH 7.4) is 24.6%. In series [1], this molecule yielded a logK measured of −0.49 and a tR of 0.40. Also, the “lit logK” value in series [2] is given as −0.28.
For `CN1C(C(=O)Nc2ccccn2)=C(O)c2ccccc2S1(=O)=O` [Piroxicam], the “% HSA measured” value in series [1] (pH 7.4) amounted to 96.6%. Also, in series [1], the logK measured is reported as 1.34, the logtR was 0.49 and the tR is 3.1. Besides, in series [2], the “lit logK” value is recorded as 1.16.
